Data from patent US9567303B2, “Crystal of 5-hydroxy-1H-imidazole-4-carboxamide hydrate and pharmaceutical composition thereof” (FUJIFILM Corporation, priority 2011, dated 2017).

Key:
Assay type in all cases: physicochemical
[1] = Hue (H) in the Munsell color system of the crystals (Test Example 6); conditions: reflection method, crystals as obtained, hydrate
Text: The Munsell color system is the color system developed by Albert H. Munsell. In the system, color is defined in terms of three attributions, hue, brightness and chroma. Hue (H) represents kinds of colors and, in the Munsell color system, hue is defined by using a total of 10 hues including 5 fundamental hues of red (R), yellow (Y), green (G), blue (B) and purple (P) and 5 intermediate hues of yellow-red (YR), yellow-green (YG), blue-green (BG), blue-purple (BP) and red-purple (RP). In addition, each hue of the 10 hues is further defined by using uniform color scales so that the maximum classification is 10. Hue (H) can be measured by using a measuring device such as a colorimeter or a color-difference meter.
Hue (H) in the Munsell color system of the crystals of Examples 9, 11 to 14 was observed.
Colorimeter: Spectrophotometric colorimeter SE 2000, manufactured by NIPPON DENSHOKU […] CO., LTD.
(§1) Measurement method: Reflection method

[2] = Observation of the color of the crystals (Test Example 3); conditions: crystals as obtained; hydrate
Text: Observation of the color of the crystals obtained in Examples 5 and 8 and Comparative Examples 4 and 5 was made.

[3] = Color difference of the crystal before and after storage, spectrophotometric colorimeter, reflection method (Test Examples 4 and 5); conditions: Table 6, stored 2 weeks, air atmosphere, 40° C., relative humidity 75%, double polyethylene bag
Method: As described herein, the color difference of the crystal is measured by reflection method using a spectrocolorimeter.
About 1 g of the test material was added in a storage bag, the storage bag being prepared by inserting one polyethylene bag into another polyethylene bag, each polyethylene bag having a thickness of 0.04 mm, each of the polyethylene bags was sealed, and the test material was stored for 2 weeks in conditions of air atmosphere at a temperature of 40° C. and a relative humidity of 75%. Color change of the crystal before and after the test was evaluated based on color difference.
as §1

[4] = Naked-eye observation of coloration after storage at 60° C. and 75% relative humidity; conditions: stored 2 weeks, relative humidity 75%
Method: Compound of Example 9 after it has been stored for 2 weeks under the condition including a temperature of 60° C. and a relative humidity of 75% is illustrated in FIG. 11.

[5] = Storage stability test under high temperature and high humidity conditions (Test Example 1); conditions: about 0.2 g in glass vial, one week, 60° C., relative humidity 75%; compared to Comparative Example 1
Method: Storage stability test under high temperature and high humidity conditions
As a test material, the crystals obtained from Example 3 and Comparative Example 1 were selected.
Each of the test material (about 0.2 g) was added to a glass vial and stored for one week under the conditions including temperature of 60° C. and relative humidity of 75%.
State of the crystal of Example 3 before starting the test is illustrated in FIG. 4 and state of the crystal of Example 3 after finishing the test is illustrated in FIG. 5. Further, state of the crystal of Comparative Example 1 before starting the test is illustrated in FIG. 6 and state of the crystal of Comparative Example 1 after finishing the test is illustrated in FIG. 7.

In the case of NC(=O)c1nc[nH]c1O [Example 11, 5-hydroxy-1H-imidazole-4-carboxamide-3/4 hydrate], the “Hue (H)” value [1] is reported as 3.8Y.

With NC(=O)c1nc[nH]c1O [Example 14, 5-hydroxy-1H-imidazole-4-carboxamide.3/4 hydrate] the “Hue (H)” value [1] was 5.9Y.

In the case of NC(=O)c1nc[nH]c1O [Comparative Example 4, 5-hydroxy-1H-imidazole-4-carboxamide.3/4 hydrate], the Color of crystals [2] is reported as “Blue”.

For NC(=O)c1nc[nH]c1O [Example 12, 5-hydroxy-1H-imidazole-4-carboxamide.3/4 hydrate], the “Hue (H)” value [1] was 4.4Y.

For NC(=O)c1nc[nH]c1O [Comparative Example 7, 5-hydroxy-1H-imidazole-4-carboxamide.3/4 hydrate, reference compound], the “Color difference (ΔE)” value ([3]; hydrate) was 8.8.

For NC(=O)c1nc[nH]c1O [Comparative Example 6, 5-hydroxy-1H-imidazole-4-carboxamide], the “Color difference (ΔE)” value [3] was 25.6.

For NC(=O)c1nc[nH]c1O [Example 13, 5-hydroxy-1H-imidazole-4-carboxamide.3/4 hydrate], the “Hue (H)” value [1] was 5.9Y and the “Color difference (ΔE)” value ([3]; hydrate) was 5.1.

For NC(=O)c1nc[nH]c1O [Example 9, 5-hydroxy-1H-imidazole-4-carboxamide.3/4 hydrate], the “Hue (H)” value [1] was 3.1Y, the “Coloration observed with a naked eye after storage” value [4] was “no coloration with blue color” and the “Color difference (ΔE)” value ([3]; hydrate) was 2.4.

In the case of NC(=O)c1nc[nH]c1O.O [Example 3, 5-hydroxy-1H-imidazole-4-carboxamide hydrate], the “Coloration and storage stability of the crystal” value [5] is reported as “clearly less coloration and better storage stability”.

For NC(=O)c1nc[nH]c1O [Example 5, 5-hydroxy-1H-imidazole-4-carboxamide.3/4 hydrate], the Color of crystals [2] was “Pale yellow”.

In the case of NC(=O)c1nc[nH]c1O [Comparative Example 5, 5-hydroxy-1H-imidazole-4-carboxamide.3/4 hydrate], the Color of crystals [2] is reported as “Blue”.
